Source: the Kinase Knowledgebase extract (Sharma et al. 2016)

How the values were obtained:
EGFR (human) [1] = target: EGFR (human) (UniProt P00533); settings: a431
EGFR (human) [2] = target: EGFR (human) (UniProt P00533); settings: A431

EGFR (human), sequence (P00533 whole entry, looked up): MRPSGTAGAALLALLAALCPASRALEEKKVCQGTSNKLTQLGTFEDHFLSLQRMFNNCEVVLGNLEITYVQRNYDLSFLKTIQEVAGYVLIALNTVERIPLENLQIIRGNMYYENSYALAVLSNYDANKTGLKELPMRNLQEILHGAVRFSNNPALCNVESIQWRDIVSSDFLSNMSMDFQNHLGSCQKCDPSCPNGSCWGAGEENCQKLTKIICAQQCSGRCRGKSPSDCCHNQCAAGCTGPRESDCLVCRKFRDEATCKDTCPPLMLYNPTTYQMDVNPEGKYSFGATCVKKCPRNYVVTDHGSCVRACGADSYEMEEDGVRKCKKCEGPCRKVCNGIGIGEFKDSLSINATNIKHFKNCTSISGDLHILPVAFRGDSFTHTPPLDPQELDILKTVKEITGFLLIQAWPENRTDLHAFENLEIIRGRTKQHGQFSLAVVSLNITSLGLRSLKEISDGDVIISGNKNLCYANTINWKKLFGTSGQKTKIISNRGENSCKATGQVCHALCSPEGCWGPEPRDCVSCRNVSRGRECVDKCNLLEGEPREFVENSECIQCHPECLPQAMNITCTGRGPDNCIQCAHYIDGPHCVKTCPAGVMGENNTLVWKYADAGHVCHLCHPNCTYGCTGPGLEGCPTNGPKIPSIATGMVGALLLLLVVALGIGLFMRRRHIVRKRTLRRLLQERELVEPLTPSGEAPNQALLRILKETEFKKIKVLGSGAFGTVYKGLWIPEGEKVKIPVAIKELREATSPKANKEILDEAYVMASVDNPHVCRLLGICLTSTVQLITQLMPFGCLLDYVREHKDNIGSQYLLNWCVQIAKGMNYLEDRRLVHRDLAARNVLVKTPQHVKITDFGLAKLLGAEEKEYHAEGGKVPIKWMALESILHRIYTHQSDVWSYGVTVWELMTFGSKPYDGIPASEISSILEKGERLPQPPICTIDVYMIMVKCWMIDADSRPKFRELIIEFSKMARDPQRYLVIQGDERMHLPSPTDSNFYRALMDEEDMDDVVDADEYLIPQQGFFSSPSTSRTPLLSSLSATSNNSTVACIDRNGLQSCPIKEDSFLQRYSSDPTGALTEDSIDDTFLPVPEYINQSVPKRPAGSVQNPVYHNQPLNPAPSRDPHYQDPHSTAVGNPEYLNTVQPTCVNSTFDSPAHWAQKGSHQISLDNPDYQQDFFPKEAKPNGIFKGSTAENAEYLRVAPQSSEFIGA

| SMILES | IC50 (EGFR (human) [1]) | IC50 (EGFR (human) [2]) |
| --- | --- | --- |
| COc1cc2nccc(Nc3ccc(OCc4ccccc4)cc3)c2cc1OC | > 50 µM | > 50 µM |
| Cc1cc2ncnc(Nc3ccc(OCc4ccccc4)cc3)c2cc1C | > 50 µM | > 30 µM |
| COc1ccc2ncnc(Nc3ccc(OCc4ccccc4)cc3)c2c1 | 12 µM | 15 µM |
| COc1cc2ncnc(Nc3ccc(Nc4ccccc4)cc3)c2cc1OC | > 50 µM | 15 µM |
| O=[N+]([O-])c1ccc2ncnc(Nc3ccc(Oc4ccccc4)cc3)c2c1 | > 50 µM | > 50 µM |
| COc1ccc2c(Nc3ccc(OCc4ccccc4)cc3)ncnc2c1 | > 50 µM | 65 µM |
| COc1cc2ncnc(Nc3ccc(Oc4ccccc4)cc3)c2cc1OC | 30 µM | 8 µM |
| c1ccc(COc2ccc(Oc3ncnc4ccccc34)cc2)cc1 | > 50 µM | > 50 µM |

Next, values leading:

| IC50 (EGFR (human) [1]) | IC50 (EGFR (human) [2]) | SMILES |
| --- | --- | --- |
| > 50 µM | 50 µM | COc1cc2nccc(Nc3ccc(N4C(=O)c5ccc(Cl)cc5C4=O)c(C)c3)c2cc1OC |
| 31 µM | > 50 µM | c1ccc(Oc2ccc(Nc3ccnc4ccccc34)cc2)cc1 |
| > 50 µM | > 50 µM | c1ccc(COc2ccc(Nc3ccnc4ccccc34)cc2)cc1 |
| 28 µM | 11 µM | COc1cccc2ncnc(Nc3ccc(OCc4ccccc4)cc3)c12 |
| > 50 µM | > 50 µM | c1csc(COc2ccc(Nc3ncnc4ccccc34)cc2)c1 |
| 50 µM | > 30 µM | Clc1ccc2c(Nc3ccc(OCc4ccccc4)cc3)ncnc2c1 |
| 6.9 µM | 1.6 µM | COc1cc2ncnc(Nc3ccc(OCc4ccccc4)c(OC)c3)c2cc1OC |
| 50 µM | 5 µM | COc1cc2ncnc(Nc3ccc(OCc4ccccc4)cc3)c2cc1OC |
| 29 µM | 10 µM | Brc1ccc2ncnc(Nc3ccc(OCc4ccccc4)cc3)c2c1 |
| 50 µM | > 50 µM | c1ccc(COc2cccc(Nc3ncnc4ccccc34)c2)cc1 |
